{
  "source": "patent US9896481B2",
  "about": "“Modified mini-hepcidin peptides and methods of using thereof” (priority 2011, dated 2018)",
  "key": {"mouse [1]": {"tested_on": "mouse", "experiment": "Activity at 20 nmoles/mouse: serum iron 4 hours after injection versus solvent (Tables 3 and 4)", "assay_type": "in vivo", "set-up": "key: Y: “Active” means that at 4 hours after injection serum iron in peptide-injected mice decreased statistically significantly (p < 0.05) compared to solvent-injected mice; Y*: Exhibits detectable and reproducible activity at about 50% lower than the most active compounds in Table 3 and 4", "settings": "Table 3, intraperitoneal"}, "mouse [2]": {"tested_on": "mouse", "experiment": "Activity at 20 nmoles/mouse: serum iron 4 hours after injection versus solvent (Tables 3 and 4)", "assay_type": "in vivo", "set-up": "key: Y: “Active” means that at 4 hours after injection serum iron in peptide-injected mice decreased statistically significantly (p < 0.05) compared to solvent-injected mice; Y*: Exhibits detectable and reproducible activity at about 50% lower than the most active compounds in Table 3 and 4", "settings": "Table 3; subcutaneous"}, "mouse [3]": {"tested_on": "mouse", "experiment": "Activity at 20 nmoles/mouse: serum iron 4 hours after injection versus solvent (Tables 3 and 4)", "assay_type": "in vivo", "set-up": "key: Y: “Active” means that the injection of the compound resulted in statistically significant (p < 0.05) lowering of serum iron compared to solvent injection when measured 4 hours after administration; Y*: detectable and reproducible activity but at least 50% lower than other active compounds in Table 4", "settings": "Table 4; intraperitoneal; serum iron 4 h after administration"}, "Hamp1-/- mice [4]": {"tested_on": "Hamp1-/- mice", "experiment": "Treatment study: 2 weeks daily PR65 in iron-overloaded hepcidin knockout mice", "assay_type": "in vivo, mouse", "settings": "50 nmoles daily s.c., 14 days", "description": "To test the effect of PR65 on iron-loaded Hamp1^−/− mice (“treatment” studies), male mice were kept on the standard diet for their entire lifespan. Beginning at 12-14 weeks of age, 50 nmoles of PR65 or solvent was injected daily by the subcutaneous route for 2 weeks.\nTo assess the potential of mini-hepcidins as a standalone treatment for iron overload in subjects, 12 week old iron-overloaded hepcidin knockout mice were injected with 50 nmoles of PR65 daily for 14 days. […] In contrast to mice that were iron-depleted before PR65 administration, in mice with established iron overload serum iron levels were not decreased 24 hours after the last dose compared to solvent-treated mice (p=0.682) (FIG. 15B). […] The less than 24 hours duration of the hypoferremic effect of each 50 nmoles dose may have been due to the severe iron overload of the hepcidin knockout mice at this age. Accumulated hepatocyte iron could stimulate ferroportin synthesis and iron efflux from hepatocytes into plasma by relieving the inhibition of ferroportin translation by iron-regulatory proteins (IRPs) interacting with 5′ iron-regulatory element (5′ IRE) in the ferroportin mRNA, and possibly by other mechanisms."}, "Hamp1-/- mice [5]": {"tested_on": "Hamp1-/- mice", "experiment": "Prevention study: 2 weeks daily PR65 in iron-depleted hepcidin knockout mice on iron-loading diet", "procedure": "PR65 was administered subcutaneously in 100 μl of SL220 solubilizer. Short-term studies were carried out for up to 48 hours to establish the effectiveness of a single injection. Long-term studies (“prevention” and “treatment”) were carried out for 2 weeks using daily injections and iron and hematological parameters measured 24 hours after the last injection.\nTo test the ability of PR65 to prevent, inhibit, or reduce iron loading (“prevention” studies), male Hamp1^−/− mice were iron-depleted by placing them on a low-iron diet (4 ppm iron) for 2 months starting at the age of 5-6 weeks. […] A group of mice was analyzed immediately after iron depletion (baseline group), and the remaining animals were switched to an iron-loading diet (standard chow, about 300 ppm Fe) and received daily subcutaneous injection of solvent or PR65 (20, 50 or 100 nmoles) for 2 weeks. All mouse diets were obtained from Harlan-Teklad (Madison, Wis.).\nSerum iron and non-heme iron concentrations were determined as previously described (Ramos E, et al. (2011) Hepatology 53(4):1333-1341), using acid treatment followed by a colorimetric assay for iron quantitation (Genzyme, Cambridge, Mass.). […] Complete blood counts were obtained with a HemaVet blood analyzer (Drew Scientific, Oxford, Conn.).\nAfter iron depletion, a group of mice was analyzed to establish the baseline iron and hematological parameters and the rest of the mice were placed on an iron-loading diet (300 ppm Fe) for 2 weeks while simultaneously receiving daily subcutaneous injections of solven only (control) or PR65 (20, 50 or 100 nmoles) in solvent. […] Hemoglobin concentrations were monitored to detect potential iron-restrictive effects of hepcidin excess on erythropoiesis."}},
  "note": "Non-standard residues stand in square brackets, D forms with d. *: point of attachment. Ida = 2,2'-azanediyldiacetic acid, O=C(O)CNCC(=O)*; Ida(NHPal) = Ida cap bearing a palmityl amide; Dip = N[C@H](C(=O)O)C(c1ccccc1)c1ccccc1; β3hP = O=C(O)C[C@@H]1CCCN1; Ahx = NCCCCCC(=O)O",
  "data": [
    {"molecule": "CCCCCCCCCCCCCCCC(=O)NCCCOCCOCCOCCCNC(=O)COCCOCCOCCNC(=O)C[C@H](Cc1ccccc1)NC(=O)[C@H](CCCNC(=N)N)NC(=O)[C@H](CS)NC(=O)[C@H](CCCNC(=N)N)NC(=O)C[C@@H]1CCCN1C(=O)[C@@H](NC(=O)[C@H](Cc1c[nH]cn1)NC(=O)[C@@H](NC(=O)CNCC(=O)O)[C@@H](C)O)C(c1ccccc1)c1ccccc1", "note": "[PR61]", "values": [
      {"measurement": "Active @ 20 nmoles/mouse IP", "setting": "mouse [1]", "result": "Y (also"},
      {"measurement": "Active @ 20 nmoles/mouse by SQ", "setting": "mouse [2]", "result": "Y (also"}
    ]},
    {"molecule": "PR82: SEQ ID NO: 101; Ida-T-H-Dpa-bhPro-R-C-R-W-Ahx-Ida(NHPal) (Ida-TH[Dip][β3hP]RCRW-{Ahx-Ida(NHPal)})", "values": [
      {"measurement": "Active @ 20 nmoles/mouse IP", "setting": "mouse [3]", "result": "Y"}
    ]},
    {"molecule": "CCCCCCCCCCCCCCCC(=O)NCCCOCCOCCOCCCNC(=O)C[C@H](Cc1ccccc1)NC(=O)[C@H](CCCNC(=N)N)NC(=O)[C@H](CS)NC(=O)[C@H](CCCNC(=N)N)NC(=O)C[C@@H]1CCCN1C(=O)[C@@H](NC(=O)[C@H](Cc1c[nH]cn1)NC(=O)[C@@H](NC(=O)CNCC(=O)O)[C@@H](C)O)C(c1ccccc1)c1ccccc1", "note": "[PR65]", "values": [
      {"measurement": "decrease in hemoglobin", "setting": "Hamp1-/- mice [4]", "result": 2, "unit": "g/dL"},
      {"measurement": "hemoglobin levels", "setting": "Hamp1-/- mice [5]; 20 nmoles per day s.c., 2 weeks", "result": "did not change significantly"},
      {"measurement": "reduction of hemoglobin concentration", "setting": "Hamp1-/- mice [5]; 50 nmoles per day s.c., 2 weeks", "result": 3, "unit": "g/dL"},
      {"measurement": "anemia", "setting": "Hamp1-/- mice [5]; 100 nmoles daily, 2 weeks", "result": "moderately anemic"},
      {"measurement": "reduction of hemoglobin concentration", "setting": "Hamp1-/- mice [5]; 100 nmoles per day s.c., 2 weeks", "result": 5, "unit": "g/dL"},
      {"measurement": "maximal tolerated dose", "setting": "Hamp1-/- mice [5]; daily s.c. dosing", "result": 50, "unit": "nmol"}
    ]}
  ]
}
